The supplement of paper PMC10307832

Assays:
Assay in all cases: relative viability (nuclei count vs DMSO), 5 days (fraction); higher = more cells survive
[1] = compound: C1=CC=C(C(=C1)C2=CC=C(C=C2)C3=CSC4=C3C(=C(C(=O)N4)C#N)O)O
In short: (§1)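 Lung cancer cell lines in 1536-well plates were kept overnight at 37 °C, then pinned with five library-drug doses (not always all listed) spaced by √10 on vehicle-anchored plates. After 5 days without medium change, cells were fixed, permeabilised and Hoechst-stained in one step, imaged at 4×, and nuclei were counted with MetaXpress. Viability is treated-well nuclei divided by vehicle-well nuclei, taken as the median over plates. Plates passed only with control CV below 25% and at least one doubling.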

TGX 221 = compound: CC1=CN2C(=O)C=C(N=C2C(=C1)C(C)NC3=CC=CC=C3)N4CCOCC4 [TGX 221]
In short: as §1

Ricolinostat = compound: O=C(CCCCCCNC(=O)c1cnc(N(c2ccccc2)c2ccccc2)nc1)NO [Ricolinostat]
In short: as §1

TGX 221 + Dasatinib = compound: CC1=CN2C(=O)C=C(N=C2C(=C1)C(C)NC3=CC=CC=C3)N4CCOCC4 [TGX 221] + Cc1nc(Nc2ncc(C(=O)Nc3c(C)cccc3Cl)s2)cc(N2CCN(CCO)CC2)n1 [Dasatinib] (partner 0.075 µM)
In short: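 Lung cancer cell lines were seeded in 1536-well plates and dosed by pin tool the next day, with either a single drug or a fixed anchor-drug dose combined with five library-drug doses (not always all listed) spaced in √10 steps. Five days later, one step fixed the cells and stained their nuclei (final 0.05% Triton X-100, 1% formaldehyde, 1 ug/ml Hoechst), and nuclei were counted on 4× images. Relative viability is the nuclei count in treated wells divided by the count in vehicle wells, and each value is the median of duplicate plates.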

Cell Line | relative viability ([1]; 0.08 µM) | relative viability ([1]; 0.253 µM) | relative viability ([1]; 0.8 µM) | relative viability ([1]; 2.53 µM) | relative viability ([1]; 8 µM) | relative viability (TGX 221; 0.08 µM) | relative viability (TGX 221; 0.253 µM) | relative viability (TGX 221; 0.8 µM) | relative viability (TGX 221; 2.53 µM) | relative viability (TGX 221; 8 µM) | relative viability (Ricolinostat; 0.253 µM) | relative viability (Ricolinostat; 0.8 µM) | relative viability (Ricolinostat; 2.53 µM) | relative viability (TGX 221 + Dasatinib; first compound 0.08 µM) | relative viability (TGX 221 + Dasatinib; first compound 0.253 µM) | relative viability (TGX 221 + Dasatinib; first compound 0.8 µM) | relative viability (TGX 221 + Dasatinib; first compound 2.53 µM) | relative viability (TGX 221 + Dasatinib; first compound 8 µM) | relative viability (Ricolinostat; 0.08 µM)
NCI-H2085 | 0.905 | 1.13 | 0.982 | 0.964 | 0.917 | 1.01 | 0.933 | 0.863 | 0.644 | 0.585 | 0.986 | 0.972 | 0.88 | 0.228 | 0.195 | 0.208 | 0.191 | 0.187 | 
LOU-NH91 | 0.941 | 1.06 | 0.962 | 0.896 | 0.894 | 0.914 | 1 | 0.948 | 0.948 | 0.901 | 1.03 | 0.94 | 0.98 | 0.561 | 0.541 | 0.535 | 0.571 | 0.529 | 
NCI-H3122 | 0.974 | 1.03 | 1.03 | 1.08 | 0.843 | 1 | 0.985 | 1.02 | 0.969 | 1.01 | 1.01 | 0.992 | 1.07 | 0.931 | 0.83 | 0.865 | 0.794 | 0.872 | 0.94
HOP-62 | 1.08 | 1.12 | 1 | 1.08 | 0.82 | 0.965 | 1.06 | 1.04 | 1.09 | 1.09 | 0.987 | 1.03 | 0.913 | 0.668 | 0.566 | 0.635 | 0.533 | 0.534 | 0.932
LCLC-103H | 1.02 | 0.984 | 1.05 | 0.984 | 1 | 0.903 | 0.983 | 0.878 | 0.928 | 0.959 | 0.957 | 1.04 | 1.08 | 0.359 | 0.438 | 0.446 | 0.344 | 0.307 | 0.778
LU99A | 0.984 | 0.905 | 0.95 | 0.89 | 0.911 | 0.859 | 0.857 | 0.896 | 0.89 | 0.981 | 0.926 | 0.865 | 0.641 | 0.507 | 0.507 | 0.509 | 0.556 | 0.593 | 0.877
NCI-H2405 | 0.977 | 0.995 | 0.927 | 0.958 | 0.955 | 0.949 | 0.991 | 0.968 | 0.954 | 0.889 | 1 | 1.01 | 0.802 | 0.235 | 0.206 | 0.22 | 0.205 | 0.179 | 0.878
PC-14 | 0.844 | 1.24 | 0.952 | 1.09 | 0.806 | 0.913 | 0.953 | 0.983 | 1.02 | 0.907 | 0.927 | 0.902 | 0.798 | 0.246 | 0.22 | 0.3 | 0.272 | 0.221 | 0.932
COR-L23 | 1.13 | 1.07 | 1.1 | 1.13 | 0.704 | 1.01 | 1 | 0.97 | 1.02 | 0.989 | 0.895 | 0.844 | 0.707 | 0.483 | 0.457 | 0.538 | 0.488 | 0.431 | 0.942
NCI-H1666 | 1.02 | 1.3 | 1.03 | 0.998 | 0.873 | 1.01 | 0.955 | 0.946 | 0.97 | 0.933 | 0.948 | 0.986 | 0.904 | 0.81 | 0.756 | 0.778 | 0.739 | 0.753 | 0.963
